Article PMC6199744, “Development of Chemical Proteomics for the Folateome and Analysis of the Kinetoplastid Folateome” (ACS Infectious Diseases, 2018)

Test system: L. major lysate proteins
Assay: Multitargeted bead mixture chemoproteomics, single concentration competition, proteome-wide
Format: binding

Nc1nc2[nH]cc(CCc3ccc(C(=O)N[C@@H](CCC(=O)O)C(=O)O)cc3)c2c(=O)[nH]1 [PTX, pemetrexed]
fold change relative to vehicle control (protein LMJF.35.1380, MIT[…], BETA SUBUNIT, PUTATIVE): 0.94 | fold change vs vehicle control (protein LMJF.35.1830 HY[…], CONSERVED): 0.93 | fold change vs vehicle control (protein LMJF.35.3340 6-phosphogluconate dehydrogenase): 1.01 | fold change (protein LMJF.35.3700 GIM5A PROTEIN, PUTATIVE,[…] PROTEIN, vehicle control = 1): 0.93 | fold change vs vehicle control (protein LMJF.35.3760 60S RIBOSOMAL PROTEIN L27A/L29, PUTATIVE): 1.08 | fold change relative to vehicle control (protein LMJF.35.3840, […] 2 SUBUNIT, PUTATIVE): 0.83 | fold change vs vehicle control (protein LMJF.35.3860 T-COMPLEX PROTEIN 1, ETA SUBUNIT, PUTATIVE): 0.97 | fold change (protein LMJF.35.4420 MIT[…] TRANSPORTER, PUTATIVE, vehicle control = 1): 1.01 | fold change relative to vehicle control (protein LMJF.35.4880, HY[…], CONSERVED (TPR repeat, putative)): 1.4 | fold change relative to vehicle control (protein LMJF.35.5330, ISOPENTENYL-D[…]-ISOMERASE, PUTATIVE): 1.04 | fold change relative to vehicle control (protein LMJF.36.0070, STRESS-INDUCIBLE PROTEIN STI1 HOMOLOG): 1.49 | fold change (protein LMJF.36.0480 HY[…], CONSERVED, vehicle control = 1): 0.95 | fold change vs vehicle control (protein LMJF.36.0620 HY[…], CONSERVED): 0.88 | fold change vs vehicle control (protein LMJF.36.0930 40S RIBOSOMAL PROTEIN S18, PUTATIVE): 1.13 | fold change vs vehicle control (protein LMJF.36.0990 40S RIBOSOMAL PROTEIN S10, PUTATIVE): 1.06 | fold change (protein LMJF.36.1140 SHORT CHAIN 3-HYDROXYACYL-COA DEHYDROGENASE, PUTATIVE, vehicle control = 1): 0.9 | fold change relative to vehicle control (protein LMJF.36.1260, FRUCTOSE-1,6-BI[…]): 1.12 | fold change (protein LMJF.36.1340 N-ACETYLT[…] NAT1, PUTATIVE, vehicle control = 1): 0.98 | fold change vs vehicle control (protein LMJF.36.1370 TRANSITIONAL ENDOPLASMIC RETICULUM ATPASE, PUTATIVE,VALOSIN-CONTAINING PROTEIN HOMOLOG): 0.94 | fold change vs vehicle control (protein LMJF.36.1650 […] 5 SUBUNIT, PUTATIVE): 1.01 | fold change relative to vehicle control (protein LMJF.36.2380, STEROL 24-C-METHYLTRANSFERASE, PUTATIVE): 0.95 | fold change vs vehicle control (protein LMJF.36.2950 SUCCINYL-COA LIGASE GDP-FORMING] BETA-CHAIN, PUTATIVE): 0.96 | fold change vs vehicle control (protein LMJF.36.3210 14-3-3 PROTEIN-LIKE PROTEIN): 0.92 | fold change vs vehicle control (protein LMJF.36.3410 SHORT CHAIN DEHYDROGENASE-LIKE PROTEIN): 1.04 | fold change (protein LMJF.36.3460 HY[…], CONSERVED (NIPSNAP, putative), vehicle control = 1): 0.94 | fold change (protein LMJF.36.3580 HY[…], CONSERVED (Protein of unknown function (DUF2009), putative), vehicle control = 1): 1.01 | fold change (protein LMJF.36.3750 40S RIBOSOMAL PROTEIN S27-1, PUTATIVE, vehicle control = 1): 0.86 | fold change vs vehicle control (protein LMJF.36.3910 S-ADENOSYLHO[…]): 0.95 | fold change vs vehicle control (protein LMJF.36.5010 40S RIBOSOMAL PROTEIN SA, PUTATIVE): 1.03 | fold change vs vehicle control (protein LMJF.36.5130 HY[…], CONSERVED): 0.91 | fold change vs vehicle control (protein LMJF.36.5150 HY[…], CONSERVED): 0.87 | fold change relative to vehicle control (protein LMJF.36.5380, NADH DEHYDROGENASE, PUTATIVE): 0.93 | fold change vs vehicle control (protein LMJF.36.5390 PHOSPHORIBOSYLPYR[…], PUTATIVE): 0.98 | fold change vs vehicle control (protein LMJF.36.5620 ISOLEUCYL-TRNA SYNTHETASE, PUTATIVE): 0.96 | fold change (protein LMJF.36.6430 PROTEIN TRANSPORT PROTEIN SEC23-LIKE PROTEIN, vehicle control = 1): 0.86 | fold change vs vehicle control (protein LMJF.36.6760 HY[…], CONSERVED): 0.92 | fold change relative to vehicle control (protein LMJF.[…], MIT[…] BETA SUBUNIT, PUTATIVE): 0.97 | fold change relative to vehicle control (protein LMJF.[…], POLY(A) EXPORT PROTEIN, PUTATIVE): 1.13 | fold change (vs vehicle control, protein LINJ.20.0630 CYTIDINE TR[…], PUTATIVE,CTP SYNTHASE, PUTATIVE): 0.98 | fold change (vs vehicle control, protein LINJ.20.1390 COATOMER BETA SUBUNIT, PUTATIVE): 0.66 | fold change (vs vehicle control, protein LMJF.05.1140 VACUOLAR ATPASE SUBUNIT-LIKE PROTEIN): 0.84 | fold change (vs vehicle control, protein LMJF.07.1090 DELTA-5 FATTY ACID DESATURASE): 0.92 | fold change (vs vehicle control, protein LMJF.09.0220 HY[…], CONSERVED): 0.65 | fold change (vs vehicle control, protein LMJF.11.1030 HY[…], CONSERVED): 0.9 | fold change (vs vehicle control, protein LMJF.14.0640 FATTY ACID ELONGASE, PUTATIVE): 0.83 | fold change (vs vehicle control, protein LMJF.14.0705 FATTY ACID ELONGASE, PUTATIVE): 0.85 | fold change (vs vehicle control, protein LMJF.14.1120 KINESIN K39, PUTATIVE): 0.88 | fold change (vs vehicle control, protein LMJF.16.1610 PROHIBITIN): 1.07 | fold change (vs vehicle control, protein LMJF.17.0010 HY[…], CONSERVED): 0.88 | fold change (vs vehicle control, protein LMJF.18.1130 RAS-RELATED PROTEIN RAB-5, PUTATIVE): 0.65 | fold change (vs vehicle control, protein LMJF.19.1420 CYSTEINE PEPTIDASE A (CPA)): 0.88 | fold change (vs vehicle control, protein LMJF.21.0280 HY[…], CONSERVED): 0.88 | fold change (vs vehicle control, protein LMJF.22.1560 40S RIBOSOMAL PROTEIN L14, PUTATIVE): 0.87 | fold change (vs vehicle control, protein LMJF.23.1220 T-COMPLEX PROTEIN 1, GAMMA SUBUNIT, PUTATIVE): 0.94 | fold change (vs vehicle control, protein LMJF.24.0370 ASPARTATE AMINOTRANSFERASE, PUTATIVE): 1.06 | fold change (vs vehicle control, protein LMJF.25.1770 ENOYL-COA REDUCTASE, PUTATIVE): 1.06 | fold change (vs vehicle control, protein LMJF.26.0170 60S RIBOSOMAL PROTEIN L7, PUTATIVE): 0.79 | fold change (vs vehicle control, protein LMJF.26.1550 TRIFUNCTIONAL ENZYME ALPHA SUBUNIT, MIT[…]-LIKE PROTEIN): 1.12 | fold change (vs vehicle control, protein LMJF.26.1610 PROLINE OXIDASE, MIT[…]-LIKE PROTEIN): 0.89 | fold change (vs vehicle control, protein LMJF.28.1950 X-PRO, DIPEPTIDYL-PEPTIDASE,SERINE PEPTIDASE, CLAN SC, FAMILY S15, PUTATIVE): 0.74 | fold change (vs vehicle control, protein LMJF.31.1070 BIOTIN/LIPOATE PROTEIN LIGASE-LIKE PROTEIN): 0.65 | fold change (vs vehicle control, protein LMJF.32.1370 HY[…], CONSERVED): 0.79 | fold change (vs vehicle control, protein LMJF.34.0490 IMPORTIN BETA-1 SUBUNIT, PUTATIVE): 0.77 | fold change (vs vehicle control, protein LMJF.34.4060 UBIQUITIN HYDROLASE, PUTATIVE,CYSTEINE PEPTIDASE, CLAN CA, FAMILY C19, PUTATIVE): 0.78 | fold change (vs vehicle control, protein LMJF.36.1600 […] 1 SUBUNIT, PUTATIVE): 0.85 | fold change (vs vehicle control, protein LMJF.[…] RIBOSOMAL PROTEIN S7, PUTATIVE): 1.19
